Measurements: PMC7000521, “Hazard Characterization of Synthetic Cathinones Using Viability, Monoamine Reuptake, and Neuronal Activity Assays” (Frontiers in Neuroscience, 2020)

Columns and labels:
[1] = target: T1, hDAT (Homo sapiens, UniProt Q01959); assay: Monoamine uptake assay (fluorescent substrate), hDAT; assay type: cell-based
T1 construct: expressed in transfected cells
Description: Human embryonic kidney (HEK) 293 cells stably expressing human DAT, NET, or SERT (kindly provided by Dr. Hoener from F. Hoffmann-La Roche Ltd., Basel, Switzerland) were cultured as described in [Zwartsen et al. (2017)].
Uptake activity of hNET, hDAT, and hSERT was measured using the Neurotransmitter Transporter Uptake Assay Kit from MDS Analytical Technologies (Sunnyvale, CA, United States) as described in detail previously ([Zwartsen et al., 2017]). The kit contained a mixture consisting of a fluorescent substrate, which resembles the biogenic amine neurotransmitters, and a masking dye that extinguishes extracellular fluorescence. Uptake of the fluorescent substrate, a measure of neurotransmitter transporter function, increases intracellular fluorescence, while extracellular fluorescence is blocked by the masking dye ([Jorgensen et al., 2008]). The mixture was dissolved in Hank’s Balanced Salt Solution (1×) (HBSS) with 20 mM HEPES, and kept up to 1 week at −20°C.
On day 0, HEK 293 cells were seeded (60,000 cells/well) in clear-bottom black-walled 96-well plates coated with poly-L-lysine (PLL, 50 mg/L). On day 1, cells were pre-incubated with the fluorescent substrate mixture (95 μL/well, comprising of the fluorescent substrate and the extracellular masking dye, dissolved in HBSS) for 12 min (t = −12 to t = 0). During incubation, intracellular fluorescence was measured every 3 min. […] Stock solutions and dilutions were freshly prepared in HBSS (1×) at the day of usage. Effects of 3-MMC, 4-MMC, 4-MEC, methylone, pentedrone, MDPV, 3-MMCinternet, and 4-MECinternet were measured at final concentrations of 0.03–300/1000 μM. Fluorescence was measured with a microplate reader (Tecan Infinite M200 microplate; Tecan Trading Männedorf, Switzerland) at 37°C at 430/515 nm excitation/emission wavelength. For more experimental detail see [Zwartsen et al. (2017)].
Data from the monoamine uptake assay were analyzed as described by [Zwartsen et al. (2017)], with minor modifications. Data for α-PVP were reanalyzed from [Zwartsen et al. (2017)]. In short, the fluorescence of each well was background corrected and uptake was determined per well by calculating the change in fluorescence (ΔFU) at 12 min after drug exposure (t = 12) compared to the fluorescence at the start of exposure (t = 0), as a percentage of the fluorescence at the start of exposure (%ΔFU = ((FUt = 12−FUt = 0)/FUt = 0)∗100%; see [Zwartsen et al., 2017]). Plate-matched control values for each compound (e.g., methylone) above or below two times the standard deviation of the average normalized control value were considered outliers and were removed from analysis (4.8%). Thereafter, uptake in drug-exposed wells was expressed as a percentage of control wells on the same plate and all uptake values were scaled between 0 and 100%. Outliers (>mean ± 2×SD) in exposed groups were removed (2.7%) and uptake (% compared to control) was expressed as mean ± SEM of nwells from Nplates.
Concentration–response curves were made for transporter, MEA, and cell viability assays. To calculate IC50 values, a four-parameter logistic curve with a variable slope was used (Y = Bottom + (Top−Bottom)/(1 + 10∧((LogIC50 − X) ^∗ HillSlo pe))) (GraphPad Prism, version 7.04). When applicable, significance between concentrations and controls (for MEA) and different IC50 values [between different transporters (DAT/NET/SERT), MEA parameters (MSR/MBR/MNBR), exposure settings (acute/prolonged/recovery), and drug grade (pharmaceutical/internet)] were determined using unpaired t-tests (two values) or one-way ANOVA’s followed by a post hoc Dunnet’s test (>2 values). All statistical tests were performed using GraphPad Prism. For recovery of neuronal activity, IC50 values and 95% confidence intervals could not always be determined and are reported as higher than the highest concentration tested (e.g., >1000 μM). […]

[2] = Estimated human brain concentrations and comparison with IC50 values; conditions: recreational human blood/serum/plasma concentration multiplied with BPF
From the text: (§1) To correlate reported effect concentrations to expected concentrations in the human brain during recreational use a brain partitioning factor (BPF; […]) was applied, as actual human brain concentrations following recreational drug use are unknown. Expected concentrations in the human brain were estimated by multiplying recreational human blood/serum/plasma concentrations with the BPF. Human recreational blood, serum, or plasma levels were obtained from literature (driving under the influence or accidental non-fatal intoxications). The BPF was determined for each drug by dividing the brain concentration by the blood/serum/plasma concentration found in human post mortem reports, or animal studies (rat/mice) when human data were insufficient.
To identify the relevance of effects and potentially harmful drugs, effect concentrations (IC50 values) were related to the estimated human brain concentration during recreational use [(brain), Table 2]. By comparing these concentrations, the most relevant neurotoxic mechanisms of cathinones can be identified. […] Only 4-MEC and MDPV inhibited neuronal activity during acute exposure at concentrations within (MDPV) or close to (4-MEC) the estimated brain concentration.

[3] = recreational use (driving under the influence or accidental non-fatal intoxications); ref literature; cited from earlier work
[4] = Brain partitioning factor (BPF); conditions: brain concentration divided by blood/serum/plasma concentration from human post mortem reports or animal studies (rat/mice)
From the text: as §1

T1 sequence (Q01959 whole entry): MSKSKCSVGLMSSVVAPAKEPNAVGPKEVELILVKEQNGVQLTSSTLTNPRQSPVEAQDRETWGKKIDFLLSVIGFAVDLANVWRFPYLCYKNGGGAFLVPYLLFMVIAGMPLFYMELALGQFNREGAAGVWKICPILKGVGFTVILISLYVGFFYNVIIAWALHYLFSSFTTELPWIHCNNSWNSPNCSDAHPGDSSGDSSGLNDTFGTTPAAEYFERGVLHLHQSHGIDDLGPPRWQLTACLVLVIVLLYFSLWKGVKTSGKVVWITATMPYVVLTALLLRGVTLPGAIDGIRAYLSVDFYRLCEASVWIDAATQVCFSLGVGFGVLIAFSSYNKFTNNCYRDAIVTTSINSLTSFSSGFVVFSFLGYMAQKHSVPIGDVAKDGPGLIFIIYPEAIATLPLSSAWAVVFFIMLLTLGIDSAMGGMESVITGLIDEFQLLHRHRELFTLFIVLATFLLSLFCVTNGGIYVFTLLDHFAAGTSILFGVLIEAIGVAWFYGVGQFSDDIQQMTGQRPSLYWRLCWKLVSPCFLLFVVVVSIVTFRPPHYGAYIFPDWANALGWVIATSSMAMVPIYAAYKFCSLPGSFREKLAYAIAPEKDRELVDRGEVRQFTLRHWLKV

Row | Compound | IC50 [1] | Estimated human (brain) concentration [2] | Human (serum/blood/plasma) concentration [3] | Brain partitioning factor (BPF) [4]
1 | CNC(C)C(=O)c1cccc(C)c1 (stereo not shown) [3-MMC, 2-(methylamino)-1-(3-methylphenyl) propan-1-one] | 2500 nM | 0.005 to 9.0 µM | 0.005–9.0^A,b,^c μM | 
2 | CCNC(C)C(=O)c1ccc(C)cc1 (stereo not shown) [4-MEC, 2-(ethylamino)-1-(4-methylphenyl) propan-1-one] | 1600 nM | 0.2 to 29 µM | 0.1–4.7^a^,d μM | 1.5–6.2^4
3 | CNC(C)C(=O)c1ccc(C)cc1 (stereo not shown) [4-MMC, 2-(methylamino)-1-(4-methylphenyl) propan-1-one] | 1400 nM | 0.04 to 37 µM | 0.05–6.0^a^,d,E,f μM | 0.7–6.2^1,^–2,^3
4 | CCCC(C(=O)c1ccc2c(c1)OCO2)N1CCCC1 (stereo not shown) [MDPV, 1-(1,3-benzodioxol-5-yl)-2-pyrro lidin-1-ylpentan-1-one] | 70 nM | 0.02 to 30 µM | 0.02–6.9^d,L,M,n μM | 0.8–4.4^4,11,12
5 | CCCC(NC)C(=O)c1ccccc1 (stereo not shown) [Pentedrone, 2-(methylamino)-1-phenyl pentan-1-one] | 400 nM | 0.06 to 3.0 µM | 0.04–1.9^a^,d,I μM | 1.6^8
